According to patent publication US10981926B2 (Janssen Pharmaceutica NV, priority 2016, dated 2021):
pEC50, pIC50: −log10 of the molar value. Read-outs that look alike come from different tables or passages of the source.

How the values were obtained:
[1] = target: AR-FL and AR-V7 in 22RV1 cells; assay: 22RV1 AR-FL and AR-V7 Transcriptional Reporter Assay; type: cell-based
Experimental: 22RV1 were obtained from ATCC and cultured in RPMI 1640 supplemented with 10% FBS. Cells were seeded at a density of 15,000 cells/well into Greiner 384-well, white, optical-bottom plates in RPMI 1640 phenol red-free medium with 1% charcoal stripped FBS and incubated for 2 days at 37° C. The cells were treated with a compound or Formula (I) in 12-point dose-response, both in the presence and absence of 0.1 nM R1881 for 18-24 hrs. At the end of assay, Steady-Glo reagent (Promega) was added to each well according to the manufacturer's instructions, placed on a shaker at 300 rpm for 10 min, and luminescence recorded using an EnVision plate reader (Perkin Elmer). The data was exported to GraphPad Prism and analyzed using the Four Parameter equation to obtain IC50 values for each compound. Each compound was tested in at least three independent experiments.

[2] = target: F876L-VP16 (Homo sapiens (Human), UniProt P10275, F877L); assay: AR-VP16 DNA Binding Assay (VP16 F876L); type: cell-based; settings: HepG2, antagonist mode, 1 nM R1881, 48 hours
Experimental: HepG2 cells were maintained in EMEM supplemented with 10% FBS. One day before transfection, the media was changed to EMEM with 10% CSS. T-150 flasks were transiently transfected using 120 μL Lipofectamine 2000 (Life Technologies), 24.5 μg AR-VP16 or F876L-VP16 (expression vector) and 49 μg 4×ARE-Luciferase (reporter vector) in OptiMEM and the flasks were incubated overnight. Cells were then trypsinized, counted and resuspended at 500,000 cells/mL. For agonist mode, the compounds were serially diluted and 50 μL of the compound was added per well. 50 μL of the cells were added to each well and incubated for 48 hours. For antagonist mode, a final concentration of 90 pM (VP16 AR) or 1 nM (VP16 F876L) R1881 was added to the plate and incubated for 48 hours. The plates were then assayed using SteadyGlo and read on the Envision. Percent Stimulation and Inhibition were determined and analyzed using GraphPad Prism.

[3] = target: wild-type Androgen Receptor (AR-wt) (Homo sapiens (Human), UniProt P10275); assay: LNCaP-AR-wt AG reporter assay (agonist mode); type: cell-based
[4] = system: androgen dependent signaling (androgen sensitive organs); assay: Hershberger Assay; type: in vivo, rat
Experimental: The effect of AR antagonists on androgen dependent signaling in vivo was assessed using the Hershberger assay. In this assay, peripubertal castrated male Sprague-Dawley rats were administered AR antagonists described herein in the presence of testosterone (0.4 mg/kg testosterone propionate) and the weights of androgen dependent organs measured. Dosing was continued for 10 days and measurements taken 24 h after the last dose. The extent of antagonism of AR and consequent inhibition of organ growth was evaluated by comparison to the castration control. Compounds of Formula (I) were dosed orally QD and an endpoint assessment made by change in weight of 5 androgen sensitive organs (ASO): Paired Cowper's Glands (CG), Seminal Vesicles with Fluids and Coagulating Glands (SVCG), Glans Penis (GP), Ventral Prostate (VP) and Levator Ani-Bulbocavernosus Complex (LABC)). According to assay guidelines, statistically significant suppression of ASO is required in 2 of 5 organs for a compound to be classified as an anti-androgen (analysis was performed by t-test/Mann-Whitney).
Unless otherwise stated, compounds defined herein were administered at 30 mg/kg and flutamide (FT), positive control, at 3 mg/kg. All compounds were co-administered with testosterone propionate (TP, 0.4 mg/kg) which was also administered alone, untreated control, (castrated only rats served as the control for complete androgen blockade). A statistically significant change in ASO achieved in at least 2 of 5 organs was indicative of an active compound.

[5] = target: AR W741C (Homo sapiens (Human), UniProt P10275, W742C); assay: Luciferase Transcriptional Reporter Assay, AR W741C (HepG2); type: cell-based
Experimental: HepG2 cells were maintained in EMEM supplemented with 10% FBS. One day before transfection, the media was changed to EMEM with 10% CSS. T-150 flasks were transiently transfected using 120 μL Lipofectamine 2000 (Life Technologies), 30 μg mutant cDNA (expression vector)—mutant cDNA tested were L701H, T877A, W741C and H874Y—and 40 μg 4×ARE-Luciferase (reporter vector) in OptiMEM and the flasks were incubated overnight. Cells were then trypsinized, counted and resuspended at 500,000 cells/mL. For agonist mode, the compounds of Formula (I) were serially diluted and 50 μL of the compound was added per well. 50 μL of the cells were added to each well and incubated for 48 hours. For antagonist mode, a final concentration of 90 pM R1881 was added to the diluted compounds and incubated for 48 hours. The plates were then assayed using SteadyGlo and read on the Envision. Percent Stimulation and Inhibition were determined and analyzed using GraphPad Prism.
F876L agonism was evident at 3 and 10 μM (5%) but zero at 30 μM. The antagonistic (IC50) and agonistic (EC50) values for each of the AR cDNA used in the reporter assays are summarized. All values are calculated relative to the activity of R1881 induced androgen receptor activity (n≥3). Also indicated are the maximal inhibition and extent of induction of androgen dependent signaling (%).

[6] = 30 mg/kg orally QD, 10 days, with TP 0.4 mg/kg, castrated rats, mean ± SD (n=6)

Sequence of AR W741C (P10275 whole entry W742C): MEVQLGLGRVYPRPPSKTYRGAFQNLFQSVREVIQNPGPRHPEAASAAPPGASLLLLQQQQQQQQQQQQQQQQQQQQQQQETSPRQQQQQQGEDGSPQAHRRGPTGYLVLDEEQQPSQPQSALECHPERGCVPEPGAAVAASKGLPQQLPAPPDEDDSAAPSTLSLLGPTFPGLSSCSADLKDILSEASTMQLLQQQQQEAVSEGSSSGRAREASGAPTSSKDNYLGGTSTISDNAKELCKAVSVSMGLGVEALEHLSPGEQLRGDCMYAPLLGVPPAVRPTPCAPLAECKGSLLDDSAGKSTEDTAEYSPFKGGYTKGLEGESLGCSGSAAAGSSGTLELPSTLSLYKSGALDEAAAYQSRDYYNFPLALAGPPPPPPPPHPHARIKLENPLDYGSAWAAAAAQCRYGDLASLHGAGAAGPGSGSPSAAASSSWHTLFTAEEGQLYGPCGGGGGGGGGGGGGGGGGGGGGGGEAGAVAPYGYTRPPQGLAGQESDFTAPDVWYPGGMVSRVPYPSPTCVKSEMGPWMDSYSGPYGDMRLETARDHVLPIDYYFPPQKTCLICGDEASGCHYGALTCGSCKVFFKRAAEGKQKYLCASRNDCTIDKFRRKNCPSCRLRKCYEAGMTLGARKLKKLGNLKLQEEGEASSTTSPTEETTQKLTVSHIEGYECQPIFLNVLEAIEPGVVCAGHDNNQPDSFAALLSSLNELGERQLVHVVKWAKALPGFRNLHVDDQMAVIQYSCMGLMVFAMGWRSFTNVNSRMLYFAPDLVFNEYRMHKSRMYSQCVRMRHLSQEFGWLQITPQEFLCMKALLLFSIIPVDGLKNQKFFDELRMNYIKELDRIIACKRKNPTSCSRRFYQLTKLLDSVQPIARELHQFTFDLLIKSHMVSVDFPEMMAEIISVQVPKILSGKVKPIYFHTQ
Sequence of wild-type Androgen Receptor (AR-wt) (P10275 whole entry): as the sequence (P10275 whole entry W742C) above, with C742W counted along it
Sequence of F876L-VP16 (P10275 whole entry F877L): as the sequence (P10275 whole entry W742C) above, with C742W, F877L counted along it

`N#Cc1ncc(N2C(=O)C3(CCC3)N(c3ccc(OC4CCNCC4)nc3)C2=S)cc1C(F)(F)F` [Cpd 43, 5-[5-oxo-8-[6-(4-piperidyloxy)-3-pyridyl]-7-thioxo-6,8-diazaspiro[3.4]octan-6-yl]-3-(trifluoromethyl)pyridine-2-carbonitrile] was tested. Which pIC50 ([1]; 22RV1, in the absence of 0.1 nM R1881, read-out: IC50, agonist mode) did it give?
The pIC50 was 3.92.

And the pIC50 ([1]; 22RV1, in the presence of 0.1 nM R1881, read-out: IC50, antagonist mode)?
Its pIC50 is 6.46.

And the pIC50 [2]?
The pIC50 was 7.82.

What about the EC50 ([3]; agonist mode, pEC50 = −Log10(EC50 in Molar), read-out: LNCaP-AR-wt AG pEC50 (converted)) of the same compound?
Its EC50 is over 15.1 µM.

What about the “LNCaP-AR-wt AG MAX % Stim” value ([3]; maximum % stimulation (agonist response) over the tested concentration range) of the same compound?
Its value is −0.1%.

And the “ASO Organ Growth (% of TP control) SVCG” value [4, 6]?
Its value is 26.0 ± 17.8 % of TP control.

And the “ASO Organ Growth (% of TP control) VP” value [4, 6]?
Its value is 24.1 ± 48.1 % of TP control.

And the “Reduction in ASO versus TP control” value ([4]; all 5 organs, p≤0.05, 30 mg/kg)?
Its value is “significant reduction”.

What about the pEC50 ([5]; HepG2, agonist mode, 48 hours, read-out: Agonism EC50, AR construct W741C) of the same compound?
The pEC50 was 5.55.

What about the Emax ([5]; HepG2, agonist mode, relative to R1881, read-out: Agonism % Emax, AR construct W741C) of the same compound?
Its Emax is 0%.

And the pIC50 ([5]; HepG2, antagonist mode, 90 pM R1881, 48 hours, read-out: Antagonism IC50, AR construct W741C)?
The pIC50 was 4.91.

What about the Emax ([5]; HepG2, antagonist mode, maximal inhibition, read-out: Antagonism % Emax, AR construct W741C) of the same compound?
Its Emax is 85%.
